Reference: PubChem BioAssay AID2060624 (Molecular Pharmacology Branch, DTP, NCI, 2025)

Tested on: 217524-143-R1-J4-PDC spheroids with HUVEC/MSC, viability
Assay: Anticancer human tumor 217524-143-R1-J4-PDC patient-derived pancreatic carcinoma cell line growth inhibition [CLK]
Settings: for IC50: curve of first compound; for viability, T/C: stronger effect = lower value
Outline: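 Patient-derived tumor cells grown as complex spheroids with HUVEC endothelial cells and mesenchymal stem cells, treated with drug combinations. Concentrations descend in half-log steps from near clinical Cmax, or from 10 microM if Cmax unknown.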

[1] = second compound 0.0316 µM, first compound 0.0316 µM
[2] = second compound 0.0316 µM, first compound 0.1 µM
[3] = second compound 0.0316 µM, first compound 0.316 µM
[4] = second compound 0.0316 µM, first compound 1 µM
[5] = second compound 0.1 µM, first compound 0.0316 µM
[6] = second compound 0.1 µM, first compound 0.1 µM
[7] = second compound 0.1 µM, first compound 0.316 µM
[8] = second compound 0.1 µM, first compound 1 µM
[9] = second compound 0.316 µM, first compound 0.0316 µM
[10] = second compound 0.316 µM, first compound 0.1 µM
[11] = second compound 0.316 µM, first compound 0.316 µM
[12] = second compound 0.316 µM, first compound 1 µM
[13] = second compound 1 µM, first compound 0.0316 µM
[14] = second compound 1 µM, first compound 0.1 µM
[15] = second compound 1 µM, first compound 0.316 µM
[16] = second compound 1 µM, first compound 1 µM
[17] = second compound 3.16 µM, first compound 0.0316 µM
[18] = second compound 3.16 µM, first compound 0.1 µM
[19] = second compound 3.16 µM, first compound 0.316 µM
[20] = second compound 3.16 µM, first compound 1 µM
[21] = second compound 10 µM, first compound 0.0316 µM
[22] = second compound 10 µM, first compound 0.1 µM
[23] = second compound 10 µM, first compound 0.316 µM
[24] = second compound 10 µM, first compound 1 µM
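Note: spheroids exposed to agents for seven days before reading.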
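Throughout, for viability, T/C: 100% = DMSO vehicle control viability.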

C=CC(=O)Nc1cc(Nc2nccc(-c3cn(C)c4ccccc34)n2)c(OC)cc1N(C)CCN(C)C + CN1CCN(c2cc(C(=O)Nc3cc4cc(-c5cnn(C)c5)ccc4cn3)ccn2)CC1
IC50 (second compound 0.0316 µM): 127 nM
IC50 (second compound 0.1 µM): 32.5 nM
IC50 (second compound 0.316 µM): < 0.949 nM
IC50 (second compound 1 µM): < 0.949 nM
IC50 (second compound 3.16 µM): < 0.949 nM
IC50 (second compound 10 µM): < 0.949 nM
viability, T/C (second compound 0.0316 µM, first compound 0.000949 µM): 79.8%
viability, T/C (second compound 0.0316 µM, first compound 0.003 µM): 63.2%
viability, T/C (second compound 0.0316 µM, first compound 0.00949 µM): 82.2%
viability, T/C (second compound 0.0316 µM, first compound 0.03 µM): 72.5%
viability, T/C (second compound 0.0316 µM, first compound 0.0949 µM): 56%
viability, T/C (second compound 0.0316 µM, first compound 0.3 µM): 32.5%
viability, T/C (second compound 0.1 µM, first compound 0.000949 µM): 57.5%
viability, T/C (second compound 0.1 µM, first compound 0.003 µM): 61.2%
viability, T/C (second compound 0.1 µM, first compound 0.00949 µM): 61.9%
viability, T/C (second compound 0.1 µM, first compound 0.03 µM): 47.2%
viability, T/C (second compound 0.1 µM, first compound 0.0949 µM): 39.5%
viability, T/C (second compound 0.1 µM, first compound 0.3 µM): 24.8%
viability, T/C (second compound 0.316 µM, first compound 0.000949 µM): 25.4%
viability, T/C (second compound 0.316 µM, first compound 0.003 µM): 27.2%
viability, T/C (second compound 0.316 µM, first compound 0.00949 µM): 22.9%
viability, T/C (second compound 0.316 µM, first compound 0.03 µM): 22.5%
viability, T/C (second compound 0.316 µM, first compound 0.0949 µM): 19%
viability, T/C (second compound 0.316 µM, first compound 0.3 µM): 12.6%
viability, T/C (second compound 1 µM, first compound 0.000949 µM): 2.17%
viability, T/C (second compound 1 µM, first compound 0.003 µM): 2.28%
viability, T/C (second compound 1 µM, first compound 0.00949 µM): 1.87%
viability, T/C (second compound 1 µM, first compound 0.03 µM): 1.61%
viability, T/C (second compound 1 µM, first compound 0.0949 µM): 1.64%
viability, T/C (second compound 1 µM, first compound 0.3 µM): 0.9%
viability, T/C (second compound 3.16 µM, first compound 0.000949 µM): 1.11%
viability, T/C (second compound 3.16 µM, first compound 0.003 µM): 0.99%
viability, T/C (second compound 3.16 µM, first compound 0.00949 µM): 1.06%
viability, T/C (second compound 3.16 µM, first compound 0.03 µM): 0.81%
viability, T/C (second compound 3.16 µM, first compound 0.0949 µM): 1.04%
viability, T/C (second compound 3.16 µM, first compound 0.3 µM): 0.71%
viability, T/C (second compound 10 µM, first compound 0.000949 µM): 0.22%
viability, T/C (second compound 10 µM, first compound 0.003 µM): 0.25%
viability, T/C (second compound 10 µM, first compound 0.00949 µM): 0.25%
viability, T/C (second compound 10 µM, first compound 0.03 µM): 0.26%
viability, T/C (second compound 10 µM, first compound 0.0949 µM): 0.27%
viability, T/C (second compound 10 µM, first compound 0.3 µM): 0.25%

CCN1CCN(Cc2ccc(Nc3ncc(F)c(-c4cc(F)c5nc(C)n(C(C)C)c5c4)n3)nc2)CC1 + CN1CCN(c2cc(C(=O)Nc3cc4cc(-c5cnn(C)c5)ccc4cn3)ccn2)CC1
IC50 (second compound 0.0316 µM): 224 nM
IC50 (second compound 0.1 µM): 11 nM
IC50 (second compound 0.316 µM): < 3.16 nM
IC50 (second compound 1 µM): < 3.16 nM
IC50 (second compound 3.16 µM): < 3.16 nM
IC50 (second compound 10 µM): < 3.16 nM
viability, T/C (second compound 0.0316 µM, first compound 0.00316 µM): 93.3%
viability, T/C (second compound 0.0316 µM, first compound 0.01 µM): 62.5%
viability, T/C [1]: 71.2%
viability, T/C [2]: 60%
viability, T/C [3]: 41%
viability, T/C [4]: 44.6%
viability, T/C (second compound 0.1 µM, first compound 0.00316 µM): 55.3%
viability, T/C (second compound 0.1 µM, first compound 0.01 µM): 53.4%
viability, T/C [5]: 44.8%
viability, T/C [6]: 39%
viability, T/C [7]: 29.1%
viability, T/C [8]: 32.6%
viability, T/C (second compound 0.316 µM, first compound 0.00316 µM): 23.3%
viability, T/C (second compound 0.316 µM, first compound 0.01 µM): 21.7%
viability, T/C [9]: 17.6%
viability, T/C [10]: 17.6%
viability, T/C [11]: 15.8%
viability, T/C [12]: 17.1%
viability, T/C (second compound 1 µM, first compound 0.00316 µM): 2.31%
viability, T/C (second compound 1 µM, first compound 0.01 µM): 2.94%
viability, T/C [13]: 2.53%
viability, T/C [14]: 3.19%
viability, T/C [15]: 3.76%
viability, T/C [16]: 3.89%
viability, T/C (second compound 3.16 µM, first compound 0.00316 µM): 0.74%
viability, T/C (second compound 3.16 µM, first compound 0.01 µM): 0.96%
viability, T/C [17]: 1.42%
viability, T/C [18]: 1.28%
viability, T/C [19]: 3%
viability, T/C [20]: 4.17%
viability, T/C (second compound 10 µM, first compound 0.00316 µM): 0.23%
viability, T/C (second compound 10 µM, first compound 0.01 µM): 0.28%
viability, T/C [21]: 0.27%
viability, T/C [22]: 0.28%
viability, T/C [23]: 0.46%
viability, T/C [24]: 0.58%

Nc1ccccc1NC(=O)c1ccc(CNC(=O)OCc2cccnc2)cc1 + CN1CCN(c2cc(C(=O)Nc3cc4cc(-c5cnn(C)c5)ccc4cn3)ccn2)CC1
IC50 (second compound 0.0316 µM): 3750 nM
IC50 (second compound 0.1 µM): 1980 nM
IC50 (second compound 0.316 µM): < 31.6 nM
IC50 (second compound 1 µM): < 31.6 nM
IC50 (second compound 3.16 µM): < 31.6 nM
IC50 (second compound 10 µM): < 31.6 nM
viability, T/C [1]: 84.2%
viability, T/C [2]: 84.9%
viability, T/C [3]: 80.2%
viability, T/C [4]: 66.5%
viability, T/C (second compound 0.0316 µM, first compound 3.16 µM): 57.4%
viability, T/C (second compound 0.0316 µM, first compound 10 µM): 23.1%
viability, T/C [5]: 65.5%
viability, T/C [6]: 61.1%
viability, T/C [7]: 63.5%
viability, T/C [8]: 60.8%
viability, T/C (second compound 0.1 µM, first compound 3.16 µM): 42.6%
viability, T/C (second compound 0.1 µM, first compound 10 µM): 19.9%
viability, T/C [9]: 18.9%
viability, T/C [10]: 20.2%
viability, T/C [11]: 27.3%
viability, T/C [12]: 39.2%
viability, T/C (second compound 0.316 µM, first compound 3.16 µM): 28.9%
viability, T/C (second compound 0.316 µM, first compound 10 µM): 5.46%
viability, T/C [13]: 1.9%
viability, T/C [14]: 1.63%
viability, T/C [15]: 1.82%
viability, T/C [16]: 1.83%
viability, T/C (second compound 1 µM, first compound 3.16 µM): 0.8%
viability, T/C (second compound 1 µM, first compound 10 µM): 0.38%
viability, T/C [17]: 0.79%
viability, T/C [18]: 1.03%
viability, T/C [19]: 0.98%
viability, T/C [20]: 0.64%
viability, T/C (second compound 3.16 µM, first compound 3.16 µM): 0.44%
viability, T/C (second compound 3.16 µM, first compound 10 µM): 0.54%
viability, T/C [21]: 0.13%
viability, T/C [22]: 0.21%
viability, T/C [23]: 0.25%
viability, T/C [24]: 0.2%
viability, T/C (second compound 10 µM, first compound 3.16 µM): 0.23%
viability, T/C (second compound 10 µM, first compound 10 µM): 0.3%
